Source: PMC9692855, “Amaryllidaceae Alkaloids from Clivia miniata (Lindl.) Bosse (Amaryllidaceae): Isolation, Structural Elucidation, and Biological Activity” (Plants, 2022)
Where two headings read alike, the source gives them in different places.

What was measured:
[1] = target: human plasma BuChE (E.C. 3.1.1.8) (Homo sapiens, UniProt P06276); test: biochemical; details: for inhibition at 100 µM: read-out: % Inhibition hBuChE ± SEM
[2] = target: human recombinant AChE (E.C. 3.1.1.7) (Homo sapiens, UniProt P22303); test: biochemical; details: for inhibition at 100 µM: read-out: % Inhibition hAChE ± SEM
Chain of human recombinant AChE (E.C. 3.1.1.7) (P22303 32-614): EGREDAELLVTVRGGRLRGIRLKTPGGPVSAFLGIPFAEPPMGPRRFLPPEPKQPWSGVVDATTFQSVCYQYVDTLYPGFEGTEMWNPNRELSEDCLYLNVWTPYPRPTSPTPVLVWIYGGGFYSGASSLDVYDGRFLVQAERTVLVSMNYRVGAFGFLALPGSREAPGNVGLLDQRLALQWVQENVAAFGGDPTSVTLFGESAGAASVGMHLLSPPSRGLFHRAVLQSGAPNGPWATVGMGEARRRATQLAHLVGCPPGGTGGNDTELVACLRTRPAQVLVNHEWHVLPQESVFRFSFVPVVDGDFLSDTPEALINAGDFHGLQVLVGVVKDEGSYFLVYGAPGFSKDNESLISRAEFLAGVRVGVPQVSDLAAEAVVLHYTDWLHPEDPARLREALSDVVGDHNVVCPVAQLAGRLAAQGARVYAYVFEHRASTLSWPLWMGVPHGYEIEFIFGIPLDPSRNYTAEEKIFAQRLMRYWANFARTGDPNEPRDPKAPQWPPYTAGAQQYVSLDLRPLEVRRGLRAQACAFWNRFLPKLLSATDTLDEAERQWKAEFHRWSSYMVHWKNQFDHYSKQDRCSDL

[3] = mean ± SEM of three independent measurements, each in triplicate, read-out: IC50 hBuChE ± SEM
[4] = tested at 100 µM compound concentration
[5] = mean ± SEM of three independent measurements, each in triplicate, read-out: IC50 hAChE ± SEM

Chain of human plasma BuChE (E.C. 3.1.1.8) (P06276 29-602): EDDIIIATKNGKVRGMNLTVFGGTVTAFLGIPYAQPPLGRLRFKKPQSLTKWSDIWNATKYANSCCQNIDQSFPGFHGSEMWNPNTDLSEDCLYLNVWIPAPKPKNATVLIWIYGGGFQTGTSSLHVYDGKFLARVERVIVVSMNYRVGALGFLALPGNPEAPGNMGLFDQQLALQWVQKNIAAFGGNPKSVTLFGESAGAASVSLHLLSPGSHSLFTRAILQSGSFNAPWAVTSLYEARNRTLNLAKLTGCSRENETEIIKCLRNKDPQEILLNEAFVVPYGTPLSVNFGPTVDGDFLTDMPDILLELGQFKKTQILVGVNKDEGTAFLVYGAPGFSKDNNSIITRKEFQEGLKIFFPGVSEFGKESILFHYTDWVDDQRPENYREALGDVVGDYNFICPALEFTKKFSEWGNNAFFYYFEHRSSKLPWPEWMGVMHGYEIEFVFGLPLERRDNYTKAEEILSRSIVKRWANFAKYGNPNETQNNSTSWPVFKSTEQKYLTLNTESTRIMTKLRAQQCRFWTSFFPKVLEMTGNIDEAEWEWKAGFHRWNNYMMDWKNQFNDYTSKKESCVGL

SMILES | inhibition at 100 µM [1] | IC50 [1, 3] | inhibition at 100 µM [2] | IC50 ([2]; read-out: IC50 hAChE ± SEM) | IC50 [1] | IC50 [2] | inhibition at 100 µM [1, 4] | IC50 [2, 5] | inhibition at 100 µM [2, 4]
COc1ccc2c3c1O[C@H]1C[C@@H](O)C=C[C@@]31CCN(C)C2 [galanthamine, reference compound] | 68.2 ± 1.24% | – | – | – | – | – | – | – | –
COc1cc2c(cc1O)C(=O)N1CCC3=C[C@H](O)[C@@H](OC(C)=O)[C@@H]2[C@@H]31 [sternbergine (17), sternbergine] | 23.5 ± 2.28% | > 100 µM | 1.25 ± 0.23% | > 100 µM | – | – | – | – | –
COc1cc2c(cc1O)CN1CCC23C=CC(OC(C)=O)CC13 (centres unmarked) [3-O-acetyl-8-O-demethylmaritidine (12), 3-O-acetyl-8-O-demethylmaritidine] | 10.3 ± 2.06% | – | 12.3 ± 1.29% | – | > 100 µM | > 100 µM | – | – | –
Cc1nc(C)c(C(=O)OC2CC3CCN(C)C3C3c4cc5c(cc4C(=O)OC23)OCO5)cc1C(=O)OC1CC2CCN(C)C2c2c1oc(=O)c1cc3c(cc21)OCO3 (centres unmarked) [clivimine B (3), clivimine B] | – | > 100 µM | – | – | – | – | 7.69 ± 2.56% | > 100 µM | 10.1 ± 5.37%
CC(O)CC(=O)O[C@H]1C[C@H]2CCN(C)[C@H]2[C@@H]2c3cc4c(cc3C(=O)O[C@H]21)OCO4 (some centres unmarked) [nobilisitine B (14), nobilisitine B] | – | > 100 µM | – | – | – | – | 12.6 ± 0.53% | > 100 µM | 40 ± 1.13%
CN1CC[C@@H]2C[C@H](O)[C@@H]3OC(=O)c4cc5c(cc4[C@H]3[C@@H]21)OCO5 [clivonine (6), clivonine] | 28.2 ± 6.63% | – | 34.4 ± 1.68% | – | > 100 µM | > 100 µM | – | – | –
Cc1nc(C)c(C(=O)O[C@H]2C[C@H]3CCN(C)[C@H]3[C@@H]3c4cc5c(cc4C(=O)O[C@H]32)OCO5)cc1C(=O)O[C@H]1C[C@H]2CCN(C)[C@H]2[C@@H]2c3cc4c(cc3C(=O)O[C@H]21)OCO4 [clivimine (2), clivimine] | – | > 100 µM | – | – | – | – | 15.2 ± 8.23% | > 100 µM | 9.62 ± 1.75%
COC(=O)c1cc(C(=O)O[C@H]2C[C@H]3CCN(C)[C@H]3[C@@H]3c4cc5c(cc4C(=O)O[C@H]32)OCO5)c(C)nc1C [cliniatine C (4), cliniatine C] | – | > 100 µM | – | – | – | – | 9.43 ± 1.23% | > 100 µM | 5.72 ± 0.53%
